Like-named read-outs stand apart in the source and are kept apart here.
Key:
[1] = molecular target: Recombinant human PKC-theta (His-tagged 362-706) (Homo sapiens (Human), UniProt Q04759); test: PKC-theta inhibition assay (HTRF KinEASE kit); format: biochemical; conditions: ATP 6.5 μM
Protocol: (§1) PKC-theta and PKC-delta biochemical activities were measured using the PKC-theta HTRF KinEASEkit kit, according to manufacturer's instructions (Cisbio, catalogue number 61ST1PEJ). Briefly, the kinase buffer component of the kit was supplemented with 10 mM MgCl2, 1 mM DTT and 0.1% Tween 20. For the PKC-theta assay, STK substrate and ATP were added to provide a final assay concentration of 525 nM and 6.5 μM, respectively. For the PKC-delta assay, STK substrate and ATP were added to provide a final assay concentration of 243 nM and 5.7 μM, respectively. The streptavidin_XL665 and STK antibody-cryptate detection reagents were mixed according to the manufacturer's instructions. Test compounds were diluted in DMSO in a series of 10 semi-log step doses; 10 nL of each compound dose were dispensed in 384 well plates. Recombinant human PKC-theta (His-tagged 362-706) or PKC-delta (His-tagged 345-676) was diluted into kinase buffer to provide a final assay concentration of 10 ng/ml and added to the test compound for 30 minutes on ice. The reaction was started by addition of the substrate and ATP and incubated at 25° C. for 30 minutes or 20 minutes for the PKC-theta and PKC-delta assays, respectively. The detection reagents were added, and the plate was incubated in the dark for 2 hours. Fluorescence was measured on an Envision 2103 plate reader with optical setup for […] in the HTRF mode. The ratio of acceptor and donor emission signals was calculated for each well. Percent inhibition values were calculated from the HTRF ratios at different doses and fitted to a 4-parameter logistic curve to determine IC50 values (see Table 1).

[2] = test system: IL-2 secretion by human effector memory T cells (TEM); test: Effector memory T cells IL-2 release assay; format: cell-based; conditions: T-cell, human CD4+ TEM cells, CD3/CD28 bead stimulation, 24 h
Protocol: Test compound-mediated inhibition of NFκB signalling in T cells was assessed by quantification of the IL-2 secretion by human effector memory T cells (TEM) upon treatment and stimulation. Human TEM cells were isolated from buffy coats of healthy donors obtained from the French blood bank. First, peripheral blood mononuclear cells (PBMC) were purified from buffy coats diluted 1:1 with DPBS (Gibco, cat #14190-094) by Pancoll (PAN BIOTECH, cat #P04-60500) density gradient centrifugation at 400×g for 20 minutes. TEM cells were further enriched by negative immuno-magnetic cell sorting using a human CD4+ Effector Memory T Cell Isolation Kit (Miltenyi, cat #130-094-125) according to the manufacturer's instructions. Aliquots of 3×10E6 purified TEM cells were kept frozen in Cryo-SFM medium (PromoCell, cat #C-29912) in gas phase nitrogen until used. Cell purity was verified by flow cytometry analysis of 200 000 PFA-fixed cells previously labelled with monoclonal antibodies anti-CD4-PerCP-Cy5.5 (BD Pharmigen, cat #332772), anti-CD8-V500 (BD Biosciences, cat #561617), anti-CD14-Pacific Blue (Biolegend, cat #325616), anti-CD45 RA-FITC (Biolegend, cat #304106) and anti-CCR7-APC (in CD4+ Effector Memory T Cell Isolation Kit, Miltenyi, cat #130-094-125).
TEM cells were resuspended in complete RPMI medium composed of: RPMI 1640 (Gibco, cat #31870-025), 10% heat inactivated fetal bovine serum (Sigma, cat #F7524), 2 mM GlutaMAX (Gibco, cat #35050-038), 1 mM sodium pyruvate 100× (Gibco, cat #11360-039), 1% MEM non-essential amino acids solution (Gibco, cat #11140-035) and 100 U/mL penicillin, 100 µg/mL streptomycin (Sigma-Aldrich, cat #11074440001). 5,000 cells per well were plated onto flat clear bottom 384 well plates (Corning, cat #3770). 5,000 Dynabeads Human T-Activator CD3/CD28 (Gibco, cat #11132D) were added to each well for cell stimulation. Finally, 10 doses of test compound, originally prepared in DMSO by serial semi-log step dilution, were also added to cells in triplicate wells. Final DMSO concentration in wells was 0.1% in a total volume of 100 µL complete medium. Plates were incubated for 24 h at 37° C. in 5% CO2 atmosphere. After incubation, cell suspensions were centrifuged at 400×g and culture supernatants were recovered and stored at −80° C. Cell viability was assessed by flow cytometry after staining the cells with Fixable Viability Dye eFluor 780 (Invitrogen, cat #65-0865-14). IL-2 levels were determined in cell supernatants using an HTRF human IL-2 detection kit (Cisbio, cat #62HIL02PEH). IL-2 data at the different compound doses were fitted to a 4-parameter logistic curve to determine IC50 values, corresponding to the compound concentration leading to 50% reduction of the maximal IL-2 levels observed in each experiment. Viability data were analysed similarly to exclude cytotoxicity as a cause of IL-2 decrease (see Table 1).

[3] = molecular target: Recombinant human PKC-delta (His-tagged 345-676) (Homo sapiens (Human), UniProt Q05655); test: PKC-delta inhibition assay (HTRF KinEASE kit), PKC-theta/PKC-delta selectivity; format: biochemical; conditions: ratio; for PKC-theta/PKC-delta selectivity: PKC-theta over PKC-delta, HTRF assays; for PKC-theta/PKC-delta selectivity (binned): binned A to G
Protocol: as §1

[4] = binned A to H, read-out: PKC-theta HTRF pIC50 (binned) (converted)
[5] = binned A to G, read-out: PKC-theta IL2 pIC50 (binned) (converted)
[6] = read-out: PKC-theta IL2 pIC50 (converted)
[7] = read-out: PKC-theta HTRF pIC50 (converted)

Sequence of Recombinant human PKC-theta (His-tagged 362-706) (Q04759 362-706): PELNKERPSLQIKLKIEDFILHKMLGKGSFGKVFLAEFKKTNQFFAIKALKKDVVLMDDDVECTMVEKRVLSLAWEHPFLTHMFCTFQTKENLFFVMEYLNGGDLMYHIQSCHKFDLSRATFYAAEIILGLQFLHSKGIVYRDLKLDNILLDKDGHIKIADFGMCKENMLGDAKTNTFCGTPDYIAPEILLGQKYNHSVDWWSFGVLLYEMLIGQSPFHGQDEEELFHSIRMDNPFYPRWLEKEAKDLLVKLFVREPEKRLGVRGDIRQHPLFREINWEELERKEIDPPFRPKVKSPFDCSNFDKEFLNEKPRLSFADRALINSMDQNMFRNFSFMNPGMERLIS
Sequence of Recombinant human PKC-delta (His-tagged 345-676) (Q05655 345-676): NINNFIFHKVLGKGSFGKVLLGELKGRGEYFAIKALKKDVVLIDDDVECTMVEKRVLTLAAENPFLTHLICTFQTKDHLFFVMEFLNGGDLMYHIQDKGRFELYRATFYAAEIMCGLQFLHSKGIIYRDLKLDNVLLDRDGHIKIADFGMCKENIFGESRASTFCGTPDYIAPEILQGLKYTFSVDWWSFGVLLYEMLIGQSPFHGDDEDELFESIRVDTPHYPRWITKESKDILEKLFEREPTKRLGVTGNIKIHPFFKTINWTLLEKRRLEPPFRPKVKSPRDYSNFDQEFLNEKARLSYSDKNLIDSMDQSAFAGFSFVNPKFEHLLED

Row | SMILES | PKC-theta HTRF pIC50 [1] | IC50 [1, 4] [nM] | IC50 [2, 5] [nM] | IC50 [2, 6] [nM] | PKC-theta/PKC-delta selectivity [3] | PKC-theta/PKC-delta selectivity (binned) [3] | IC50 [1, 7] [nM]
1 | CC1(O)C(=O)Nc2nccc(-c3ccn(C4CCNCC4)n3)c21 (stereo not shown) [Example 13] | 7.4 | 31.6 to 100 | 316 to 1000 | 631 | 4 | F (F means a ratio of between 1 and 5) | 
2 | CO[C@@]1(C)C(=O)Nc2nccc(-c3nn([C@H]4CCNC[C@H]4F)c4ccccc34)c21 (single isomer, unassigned) [Example 93] |  | 3.16 to 10 | 31.6 to 100 | 50.1 | 10 | E (E means a ratio of between 5 and 10) | 3.98
3 | CC1(C)C(=O)Nc2nccc(-c3cn(C4CCNC4)c4ccccc34)c21 (stereo not shown) [Example 10] | 7.4 | 31.6 to 100 | 316 to 1000 | 631 | 12 | D (D means a ratio of between 10 and 20) | 
4 | CO[C@]1(C)C(=O)Nc2nccc(-c3nn(CC4(F)CCNCC4)c4cc(F)ccc34)c21 (single isomer, unassigned) [Example 76] |  | 1 to 3.16 | 31.6 to 100 | 100 | 22 | C (C means a ratio of between 20 and 30) | 3.16
5 | C[C@@]1(O)C(=O)Nc2nccc(-c3nn(C4CCNCC4)c4c(OC(F)F)cccc34)c21 (single isomer, unassigned) [Example 43] |  | 3.16 to 10 | 316 to 1000 | 316 | 11 | D (D means a ratio of between 10 and 20) | 7.94
6 | C[C@]1(O)C(=O)Nc2nccc(-c3nn(C4(CC#N)CCC4)c4cc(C(F)(F)F)ccc34)c21 (single isomer, unassigned) [Example 64] |  | 1 to 3.16 | 31.6 to 100 | 79.4 | 28 | C (C means a ratio of between 20 and 30) | 2.51
7 | CCC1(C)C(=O)Nc2nccc(-c3nn([C@@H]4CCNC[C@@H]4F)c4ccccc34)c21 (stereo partly shown) [Example 52] | 8.4 | 3.16 to 10 | 31.6 to 100 | 39.8 | 8 | E (E means a ratio of between 5 and 10) | 
8 | CC[C@@]1(C)C(=O)Nc2nccc(-c3nn([C@H]4CCNC[C@H]4F)c4ccc(F)cc34)c21 (single isomer, unassigned) [Example 99] |  | 31.6 to 100 | 316 to 1000 | 398 | 105 | A (A means a ratio of between 50 and 120) | 100
9 | CC1(C)C(=O)Nc2nccc(-c3nn(C4(CC#N)COC4)c4ccccc34)c21 [Example 45] | 7.4 | 31.6 to 100 | > 1000 | 1000 | 15 | D (D means a ratio of between 10 and 20) | 
10 | CC[C@@]1(C)C(=O)Nc2nccc(-c3nn([C@@H]4CCNC[C@@H]4F)c4cc(F)ccc34)c21 (single isomer, unassigned) [Example 103] |  | 1 to 3.16 | 31.6 to 100 | 63.1 | 22 | C (C means a ratio of between 20 and 30) | 2.51
11 | CC1(C)C(=O)Nc2nccc(-c3nn([C@H]4CCNC4)c4cc(C(F)(F)F)ccc34)c21 [Example 74] | 6.5 | 100 to 316 | 316 to 1000 | 631 | 33 | B (B means a ratio of between 30 and 50) | 
12 | CN1CCOCC1(C)Cn1nc(-c2ccnc3c2C(C)(C)C(=O)N3)c2ccccc21 (stereo not shown) [Example 63] | 7.5 | 10 to 31.6 | > 1000 | 1260 | 17 | D (D means a ratio of between 10 and 20) | 
13 | CC[C@@]1(C)C(=O)Nc2nccc(-c3nn([C@@H]4CCNC[C@@H]4F)c4ccccc34)c21 (single isomer, unassigned) [Example 105] |  | 10 to 31.6 | 316 to 1000 | 398 | 33 | B (B means a ratio of between 30 and 50) | 12.6
14 | CC[C@]1(C)C(=O)Nc2nccc(-c3nn([C@H]4CCNC[C@H]4F)c4cc(F)ccc34)c21 (single isomer, unassigned) [Example 102] |  | 3.16 to 10 |  |  | 46 | B (B means a ratio of between 30 and 50) | 6.31
15 | CC1(O)C(=O)Nc2nccc(-c3cn([C@@H]4CCNC4)c4ccccc34)c21 (stereo partly shown) [Example 17] |  |  |  |  | 7 | E (E means a ratio of between 5 and 10) | 
16 | C[C@@]1(O)C(=O)Nc2nccc(-c3nn(C4CCNCC4)c4cc(C(F)(F)F)ccc34)c21 (single isomer, unassigned) [Example 42] |  | 10 to 31.6 | 316 to 1000 | 398 |  |  | 25.1

Source: patent US20240239794A1, “PKC-Theta Modulators” (Exscientia AI Limited, priority 2021, published 2024)
